# Measured values reported in US20090081322A1, “Process for the preparation of antioxidant conserve from Indian curry leaves (MURRAYA KOENIGII SPRENG.)” (Council of Scientific and Industrial Research, priority 2002, published 2009).
# Assay: Antioxidant assay by β-carotene-linoleate model system
# Assay type: biochemical
# Details: 100 ppm concentration; β-carotene bleaching, 90 min incubation at 50° C.
# Method: The antioxidant activity of curry leaves extract was evaluated by the β-carotene-linoleate model (Jayaprakasha and Jaganmohan Rao, Z. Naturforsch. 55C, 1018-1022, 2000). 0.2 mg of the β-carotene in 0.5 ml of chloroform, 20 mg of linoleic acid and 200 mg of Tween-40 (polyoxyethylene sorbitan monopalmitate) were mixed together. The chloroform was removed at 40° C. under vacuum using a rotary evaporator. The resulting solution was immediately diluted with 10 ml of triple-distilled water and the emulsion was mixed well for 1 min. The emulsion was further diluted with 40 ml of oxygenated water before use. 4 ml aliquots of this mixture were transferred into different tubes containing 0.2 ml of samples at 100 ppm concentrations in ethanol, butylated hydroxyanisole (BHA) was used for comparative purposes. A control containing 0.2 ml of ethanol and 4 ml of the above mixture was prepared. Optical density (OD) at 470 nm were taken for the all extracts and pure compounds immediately (t=0) at 15 min intervals for 1.5 h (t=90). […] The antioxidant activities (AA) of the samples were evaluated in terms of bleaching the β-carotene using the following formula. AA=100[1−(Ao−At)/(A^oo−A^ot)] where Ao and A^oo are the OD measured at zero time of incubation for test sample and control, respectively. At and A^ot are the OD measured in the test sample and control, respectively, after incubation for 90 min.
compound,measurement,value
"COc1ccc(O)c(C(C)(C)C)c1 [BHA, butylated hydroxy anisole]",antioxidant activity,90.2%
